Read-outs that look alike come from different tables or passages of the source.

This experiment concerns LoVo cells. Description: LoVo cell proliferation assay (CellTiter-Glo). The format is cell-based. Particulars: LoVo cells, 2,000 cells per well, 5 days incubation, CellTiter-Glo, maximum concentration 10 µM, 9 concentrations, read-out: LoVo IC50. The protocol: Test Example 2: LoVo cell proliferation assay
LoVo (ATCC, #CRL-229) cells in logarithmic growth phase were digested, counted, and plated into 96-well cell culture plates at 2,000 cells per well. The plates containing cells were incubated overnight at 37°C in a 5% CO2 incubator, and then test compounds with 3-fold gradient dilutions (maximum concentration: 10 µM, 9 concentrations) were added. DMSO was used as a blank control. After the LoVo cells containing the compounds or DMSO were incubated for an additional 5 days, an equal volume of CellTiter-Glo reagent (Promega, #7573) was added. After incubation at room temperature for 30 minutes, chemiluminescence was read using an Envision 2105 (PerkinElmer). The cell proliferation inhibition rate (%) for wells treated with each concentration of the compounds was calculated using the following formula. Then, with compound concentration as the horizontal axis and cell proliferation inhibition rate (%) as the vertical axis, GraphPad software was used to plot the data and determine the IC50 values of the test compounds. The results are shown in Table 2, wherein the IC50 ranges are defined as follows: A: ≤ 100 nM; 1000 nM ≥ B > 100 nM; C > 1000 nM.
Cell proliferation inhibition (%) = (1 - luminescence value of compound-treated group / average luminescence value of DMSO blank control group) × 100. Table 2. Inhibitory effect of compounds on LoVo growth

The IC50 is the concentration at which inhibition is half-maximal. With `CC1c2cc(N3CCOC[C@H]3C)nc3c2c(nn3-c2cc[nH]n2)CCN1CC1COC1` (single isomer, unassigned) [Compound 44B], the IC50 fell in the range of 100 to 1000 nM.
Turning to `CC1c2cc(N3CCOC[C@H]3C)nc3c2c(nn3-c2cc[nH]n2)CCN1CC(F)F` (single isomer, unassigned) [Compound 45A], the IC50 (Homo sapiens, LoVo, 120 h) was 100 to 1000 nM.
On to `CC1c2cc(N3CCOC[C@H]3C)nc3c2c(nn3-c2cc[nH]n2)CCN1CC(F)F` (single isomer, unassigned) [Compound 45B], for which the IC50 fell in the range of 100 to 1000 nM.
For the molecule `CC1c2cc(N3CCOC[C@H]3C)nc3c2c(nn3-c2cc[nH]n2)CCN1S(C)(=N)=O` (single isomer, unassigned) [Compound 46A], where the note is “Homo sapiens, LoVo, 120 h”, the IC50 lay in the range of 100 to 1000 nM.
Consider `CC1c2cc(N3CCOC[C@H]3C)nc3c2c(nn3-c2cc[nH]n2)CCN1S(C)(=N)=O` (single isomer, unassigned) [Compound 46B], for which the IC50 was 100 to 1000 nM.
Same read-out and setting: next, `CC1c2cc(N3CCOC[C@H]3C)nc3c2c(nn3-c2cc[nH]n2)CCN1S(C)(=N)=O` (single isomer, unassigned) [Compound 46D]: 100 to 1000 nM.
`CC1c2cc(N3CCOC[C@H]3C)nc3c(-c4cc[nH]n4)nn(c23)CCN1C` (single isomer, unassigned) [Compound 59A]: the IC50 (Homo sapiens, LoVo, 120 h) lay in the range of 100 to 1000 nM.
For the molecule `CC1c2cc(N3CCOC[C@H]3C)nc3c(-c4cc[nH]n4)nn(c23)CCN1C` (single isomer, unassigned) [Compound 59B], the IC50 was 100 to 1000 nM.
With `C[C@@H]1COCCN1c1cc2c3c(n1)c(-c1cc[nH]n1)nn3CCC2(O)C1CCOCC1` (single isomer, unassigned) [Compound 73A], the IC50 (Homo sapiens, LoVo, 120 h) is > 1000 nM.
As for `C[C@@H]1COCCN1c1cc2c3c(n1)c(-c1cc[nH]n1)nn3CCC2(O)C1CCOCC1` (single isomer, unassigned) [Compound 73B], the IC50 is > 1000 nM.
With `C[C@@H]1COCCN1c1cc2c3c(n1)c(-c1cc[nH]n1)nn3CCC2(O)c1cnn(C)c1` (single isomer, unassigned) [Compound 74A], the IC50 (Homo sapiens, LoVo, 120 h) is > 1000 nM.
Regarding `C[C@@H]1COCCN1c1cc2c3c(n1)c(-c1cc[nH]n1)nn3CCC2(O)c1cnn(C)c1` (single isomer, unassigned) [Compound 74B], the IC50 is > 1000 nM.
As to `CC(C)C1c2cc(N3CCOC[C@H]3C)nc3c2c(nn3-c2cc[nH]n2)CCN1S(C)(=O)=O` (single isomer, unassigned) [Compound 140A], the IC50 (Homo sapiens, LoVo, 120 h) is < 100 nM.
As for `CC(C)C1c2cc(N3CCOC[C@H]3C)nc3c2c(nn3-c2cc[nH]n2)CCN1S(C)(=O)=O` (single isomer, unassigned) [Compound 140B], the IC50 was 100 to 1000 nM.
Turning to `C[C@@H]1COCCN1c1cc2c3c(nn(-c4cc[nH]n4)c3n1)CCN(S(=O)(=O)C(F)(F)F)C2` [Compound 25, (R)-4-(2-(1H-pyrazol-3-yl)-7-((trifluoromethyl)sulfonyl)-6,7,8,9-tetrahydro-2H-1,2,3,7-tetraazabenzo[cd]azulen-4-yl)-3-methylmorpholine], the IC50 (Homo sapiens, LoVo, 120 h) was < 100 nM.
For the molecule `C[C@@H]1COCCN1c1cc2c3c(nn(-c4cc[nH]n4)c3n1)CCN(S(=O)(=O)C1COC1)C2` [Compound 26, (R)-3-methyl-4-(7-(oxetan-3-ylsulfonyl)-2-(1H-pyrazol-3-yl)-6,7,8,9-tetrahydro-2H-1,2,3,7-tetraazabenzo[cd]azulen-4-yl)morpholine], the IC50 (Homo sapiens, LoVo, 120 h) fell in the range of 100 to 1000 nM.
On to `CC1c2cc(N3CCOC[C@H]3C)nc3c2c(nn3-c2cc[nH]n2)CCN1c1cnn(C)c1` (stereo partly drawn) [Compound 43, (3R)-3-methyl-4-(6-methyl-7-(1-methyl-1H-pyrazol-4-yl)-2-(1H-pyrazol-3-yl)-6,7,8,9-tetrahydro-2H-1,2,3,7-tetraazabenzo[cd]azulen-4-yl)morpholine], for which the IC50 (Homo sapiens, LoVo, 120 h) is 100 to 1000 nM.
The same measure, in the same setting: next, `C[C@@H]1COCCN1c1cc2c3c(n1)c(-c1cc[nH]n1)nn3CCNC2` [Compound 51, (R)-4-(2-(1H-pyrazol-3-yl)-6,7,8,9-tetrahydro-1,3,7,9a-tetraazabenzo[cd]azulen-4-yl)-3-methylmorpholine]: 100 to 1000 nM.

The values are drawn from EP4692090A1 (Shanghai Fosun Pharmaceutical (Group) Co., Ltd., priority 2023, dated 2024).
